Patent publication US20250179299A1, “DYES FOR MONITORING CELL STATES” (SUNNYBROOK RESEARCH INSTITUTE, priority 2022, published 2025)
Where a name gives a salt, the structure may show the parent alone.

Experiments:
[1] = tested on: MCF-7 tumoral cells; assay: Staining of live MCF-7 cells with 1 μM dye (microscopy); type: cell-based, human
Protocol: FIGS. 14A-J depict microscopy images showing staining of MCF7 cells with 1 μM of the following dyes: MT3 (FIG. 14A), MT20 (FIG. 14B), MT21 (FIG. 14C), MT22 (FIG. 14D), MT23 (FIG. 14E), MT24 (FIG. 14F), MT25 (FIG. 14G), MT26 (FIG. 14H), MT27 (FIG. 14I), and MT28 (FIG. 14J). Scale bar, 25 μm.
Used at a standard 1 μM concentration, the proposed dyes produce varying staining patterns and intensities. Furthermore, the proposed dyes display fluorescent properties only when labelling cell organelles and can therefore be used directly without washing steps.

[2] = tested on: MCF10A epithelial breast cells; assay: Staining of control and drug-treated MCF10A cells; type: cell-based
Protocol: FIGS. 2A-E depict microscopy images showing fluorescence change of 1 μM MT3 and reference dyes following drug treatment of non-tumorigenic MCF10A epithelial breast cells.
(§1) MCF10A cells were cultured for 24 hrs prior to 72 hr dual treatment with 0.312 μM each of AZD 5991 (Bcl-XL inhibitor) and A1331852 (MCL-1 inhibitor) or DMSO (solvent control). FIG. 2A: cells were stained with Hoechst (left images), TMRE (middle images) and MT3 (right images). Scale bar, 100 μm. FIGS. 2B-E: comparison of the staining pattern of Hoechst, MT3, and TMRE in control and treated MCF10A epithelial breast cells.
(§2) These changes in fluorescence emission properties were shared by all dyes tested (MT2-MT5).
In the figures, Hoechst stains DNA in the nucleus, and if the nucleus condenses that staining becomes bright (i.e., more dye per unit area). […] In FIG. 2E, the TMRE staining has almost completely disappeared in drug treated cells, whereas MT3 is staining the nuclei. […] FIGS. 7 and 8 have similar lack of staining for TMRE, FIG. 7 is similar to FIG. 4 where the staining with Hoechst and MT3 are mutually exclusive, and FIG. 8 is similar to FIG. 3 where MT3 is staining nuclei where the Hoechst has not condensed.

[3] = tested on: primary cells (lymphocytes) and cell lines (tumoral); assay: Fluorescence change of dye-stained cells after treatment with agents that induce cell death; type: cell-based; settings: for fluorescence intensity relative to MT4 and MT5 / signal-to-noise ratio relative to MT4 and MT5: low micromolar staining concentrations (e.g., 1 μM); for change in fluorescence intensity of the dye after treatment with cell-death inducing agents: staurosporine, or AZD 5991 plus A1331852, in cells sensitive to these drugs but not in chemoresistant cells
Protocol: FIG. 1 depicts microscopy images showing fluorescence change of MT2 and reference dyes following drug treatment of primary lymphocytes. Primary lymphocytes were cultured for 24 hrs with 1 μM Staurosporine (STS, pan-kinase inhibitor) or DMSO (solvent control). Cells were stained with Hoechst (left images), tetramethylrhodamine ethyl ester (TMRE) (middle images) and MT2 (right images). Scale bar, 20 μm.
as §1
(§3) FIG. 3 depicts microscopy images showing fluorescence change of 1 μM MT3 and reference dyes following drug treatment of CAMA-1 luminal-type human breast cancer cells. CAMA-1 cells were cultured for 24 hrs prior to 72 hr dual treatment with 0.312 μM each of AZD 5991 (Bcl-XL inhibitor) and A1331852 (MCL-1 inhibitor) or DMSO (solvent control). Cells were stained with Hoechst (left images), TMRE (middle images) and MT3 (right images). Scale bar, 100 μm.
(§4) FIG. 4 depicts microscopy images showing fluorescence change of MT3 and reference dyes following drug treatment of MCF-7 human epithelial breast adenocarcinoma cells. MCF-7 cells were cultured for 24 hrs prior to 72 hr dual treatment with 0.312 μM each of AZD 5991 (Bcl-XL inhibitor) and A1331852 (MCL-1 inhibitor) or DMSO (solvent control). Cells were stained with Hoechst (left images), TMRE (middle images) and MT3. Scale bar, 100 μm.
as §3, with “FIG. 5” for “FIG. 3”, “of” for “of 1 μM”, “of Zr-75-1 epithelial” for “of CAMA-1 luminal-type human”, “breast ductal carcinoma” for “breast cancer”, “cells. Zr-75-1” for “cells. CAMA-1”
as §4, with “FIG. 6” for “FIG. 4”, “of MDA-MB-231” for “of MCF-7 human”, “cells. MDA-MB-231” for “cells. MCF-7”, “and MT3 (right images).” for “and MT3.”
as §4, with “FIG. 7” for “FIG. 4”, “of MDA-MB-468” for “of MCF-7 human”, “cells. MDA-MB-468” for “cells. MCF-7”
as §3, with “FIG. 8” for “FIG. 3”, “of” for “of 1 μM”, “of T47D epithelial” for “of CAMA-1 luminal-type human”, “breast ductal carcinoma” for “breast cancer”, “cells. T47D” for “cells. CAMA-1”
as §2

[4] = tested on: MCF-7 breast epithelial cancer cells; assay: MT2 staining of MCF-7 cells treated with inducers of autophagy, ER stress or apoptosis; type: cell-based, human; settings: 1-5 μM MT2; Rapamycin, Thapsigargin, or TNFα and CHx; excitation 488 nm, emission 520, 600, 690 nm
Protocol: FIG. 9 depicts microscopy images showing fluorescence change of MT2 and reference dyes following drug treatment of MCF-7 human epithelial breast adenocarcinoma cells. MCF-7 cells were cultured for 12 hrs in standard conditions and treated with drugs to induce autophagy (Rapamycin), endoplasmic reticulum stress (Thapsigargin), apoptosis (Tumor Necrosis Factor alpha, TNFα, and Cyclohexamide, CHx), or solvent control (DMSO). Dye MT2 was excited at 488 nm, and emission was simultaneously collected at three wavelengths, 520 nm (Green), 600 nm (Red), and 690 (Far Red) nm.
The dye was excited at 488 nm, and emission was simultaneously collected at three wavelengths, 520 (Green), 600 (Red), and 690 (Far Red) nm. […] Image analysis by machine-learning algorithms trained on measurements of cellular intensity, morphology, and texture features permits to distinguish treatment-specific phenotypic states.

[5] = tested on: Zr-75-1 epithelial breast ductal carcinoma cells; assay: MT3 staining of drug-treated chemoresistant Zr-75-1 cells; type: cell-based; settings: 72 hr 0.312 μM each AZD 5991 and A1331852
Protocol: as §3, with “FIG. 5” for “FIG. 3”, “of” for “of 1 μM”, “of Zr-75-1 epithelial” for “of CAMA-1 luminal-type human”, “breast ductal carcinoma” for “breast cancer”, “cells. Zr-75-1” for “cells. CAMA-1”
as §2

How did the cell permeability [1] turn out when `Cc1cccc(N(c2cccc(C)c2)c2ccc3cc(/C=C/c4cc[n+](CCCS(=O)(=O)[O-])cc4F)ccc3c2)c1` [MT23, 4-[(1E)-2-{6-[Bis(3-methylphenyl)amino]naphthalen-2-yl}ethenyl]-3-fluoro-1-(3-sulfopropyl)pyridin-1-ium] was run?
Its cell permeability is “cell-permeable”.

How did the “staining of drug-treated dying cells relative to control cells” value ([2]; 72 hr 0.312 μM each AZD 5991 and A1331852 (FIGS. 2E and 3)) turn out when “tetramethylrhodamine ethyl ester [TMRE, reference compound]” was run?
The value was “low staining”.

How did the “ability to stain live cells” value [1] turn out when `Cc1cccc(N(c2cccc(C)c2)c2ccc3cc(/C=C/c4cc[n+](CCCCS(=O)(=O)[O-])cc4)ccc3c2)c1` [MT21, (E)-4-(4-(2-(6-(di-m-tolylamino)naphthalen-2-yl)vinyl)pyridin-1-ium-1-yl)butane-1-sulfonate] was run?
The value was “able to stain live cells”.

And the cell permeability [1]?
The cell permeability was “cell-permeable”.

With `Cc1cccc(N(c2cccc(C)c2)c2ccc3cc(/C=C(\F)c4cc[n+](CCCS(=O)(=O)[O-])cc4)ccc3c2)c1` [MT24, 4-[(1Z)-2-{6-[Bis(3-methylphenyl)amino]naphthalen-2-yl}-1-fluoroethenyl]-1-(3-sulfopropyl)pyridin-1-ium] as the molecule, how does the cell permeability [1] read?
The cell permeability was “cell-permeable”.

For `CC(C)CCN(CCC(C)C)c1ccc2cc(/C=C/c3cc[n+](CCCS(=O)(=O)[O-])c4ccccc34)ccc2c1` [MT2, 4-(2-[6-(diisopentylamino)-2-naphthalenyl]ethenyl)-1-(3-sulfopropyl)quinolinium inner salt], which “fluorescence intensity relative to MT4 and MT5” value [3] is on record?
The value was “better fluorescence intensity”.

And the “signal-to-noise ratio relative to MT4 and MT5” value [3]?
Its value is “better signal-to-noise ratios”.

And the “change in fluorescence intensity of the dye after treatment with cell-death inducing agents” value [3]?
Its value is “increase in fluorescence intensity”.

What about the “staining pattern across phenotypic states (autophagy, ER stress, apoptosis)” value [4] of the same molecule?
The value was “different staining patterns”.

Which cell permeability [1] does the source give for `CC(C)=CCN(CC=C(C)C)c1ccc2cc(/C=C/c3cc[n+](CCCS(=O)(=O)[O-])cc3)ccc2c1F` [MT25, 4-[(1E)-2-{6-[Bis(3-methylbut-2-en-1-yl)amino]-5-fluoronaphthalen-2-yl}ethenyl]-1-(3-sulfopropyl)pyridin-1-ium] here?
Its cell permeability is “cell-permeable”.

How did the “ability to stain live cells” value [1] turn out when `Cc1cccc(N(c2cccc(C)c2)c2ccc3cc(/C=C/c4cc[n+](CCCS(=O)(=O)[O-])cc4)c4ccccc4c3c2)c1` [MT20, (E)-3-(4-(2-(3-(di-m-tolylamino)phenanthren-9-yl)vinyl)pyridin-1-ium-1-yl)propane-1-sulfonate] was run?
The value was “able to stain live cells”.

And the cell permeability [1]?
Its cell permeability is “cell-permeable”.

`Cc1cccc(N(c2cccc(C)c2)c2ccc3cc(/C=C/c4cc[n+](CCCS(=O)(=O)[O-])cc4)ccc3c2)c1` [MT3, 4-(2-[6-(dim-tolylamino)-2-naphthalenyl]ethenyl)-1-(3-sulfopropyl) pyridinium Inner Salt] was tested. Which “fluorescence intensity relative to MT4 and MT5” value [3] did it give?
Its value is “better fluorescence intensity”.

And the “signal-to-noise ratio relative to MT4 and MT5” value [3]?
Its value is “better signal-to-noise ratios”.

What about the “change in fluorescence intensity of the dye after treatment with cell-death inducing agents” value [3] of the same molecule?
Its value is “increase in fluorescence intensity”.

And the “staining of cells with condensed nuclei (Hoechst staining)” value [5]?
Its value is “did not show bright MT3 staining”.

And the “ability to stain live cells” value [1]?
The value was “able to stain live cells”.

And the cell permeability [1]?
The cell permeability was “cell-permeable”.

And the “staining intensity of drug-treated dying cells” value ([2]; MCF10A, 1 μM MT3, 72 hr 0.312 μM each AZD 5991 and A1331852, normal cells stained with different intensities)?
The value was “very brightly”.

`CC(C)=CCN(CC=C(C)C)c1ccc2cc(/C=C/c3cc[n+](CCCS(=O)(=O)[O-])cc3)ccc2c1` [MT22, (E)-3-(4-(2-(6-(bis(3-methylbut-2-en-1-yl)amino)naphthalen-2-yl)vinyl)pyridin-1-ium-1-yl)propane-1-sulfonate] was tested. Which “ability to stain live cells” value [1] did it give?
Its value is “able to stain live cells”.

And the cell permeability [1]?
The cell permeability was “cell-permeable”.

With `Cc1cccc(N(c2cccc(C)c2)c2ccc3cc(/C=C/c4cc[n+](CCC[N+](C)(C)C)cc4)ccc3c2)c1` [MT27, 4-[(1E)-2-{6-[Bis(3-methylphenyl)amino]naphthalen-2-yl}ethenyl]-1-[3-(trimethylazaniumyl)propyl]pyridin-1-ium dibromide] as the molecule, how does the “ability to stain live cells” value [1] read?
The value was “able to stain live cells”.

What about the cell permeability [1] of the same molecule?
The cell permeability was “cell-permeable”.

What does the source list for `Cc1cccc(N(c2cccc(C)c2)c2ccc3cc(/C=C/c4cc[n+](CC(O)C[N+](C)(C)CCO)cc4)ccc3c2)c1` (centres unmarked) [MT28, 4-[(1E)-2-{6-[Bis(3-methylphenyl)amino]naphthalen-2-yl}ethenyl]-1-{2-hydroxy-3-[(2 hydroxyethyl)dimethylazaniumyl]propyl}pyridin-1-ium dibromide]?
ability to stain live cells [1]: able to stain live cells; cell permeability [1]: cell-permeable

`CC(C)=CCN(CC=C(C)C)c1ccc2cc(/C=C/c3cc[n+](CCCS(=O)(=O)[O-])cc3)ccc2c1C(F)(F)F` [MT26, 4-[(1E)-2-{6-[Bis(3-methylbut-2-en-1-yl)amino]-5-(trifluoromethyl)naphthalen-2-yl}ethenyl]-1-(3-sulfopropyl)pyridin-1-ium] was tested. Which cell permeability [1] did it give?
The cell permeability was “cell-permeable”.
